Key:
Assay in all cases: Kinase panel selectivity profiling
Type in all cases: biochemical
Aurora A = Aurora A (Homo sapiens, UniProt O14965); settings: TBID 1 μM, 125 kinase panel, read-out: % activity of the enzyme
Text: (§1) The source of HIPK2 and of all of the other protein kinases used for specificity assays is as described elsewhere.
(§2) Conditions for the activity assays of all other protein kinases tested in selectivity experiments are as described or referenced in [9].

BRSK2 = BRSK2 (Homo sapiens, UniProt Q8IWQ3); settings: TBID 1 μM, 125 kinase panel, read-out: % activity of the enzyme
Chain of BRSK2 (Q8IWQ3 whole entry): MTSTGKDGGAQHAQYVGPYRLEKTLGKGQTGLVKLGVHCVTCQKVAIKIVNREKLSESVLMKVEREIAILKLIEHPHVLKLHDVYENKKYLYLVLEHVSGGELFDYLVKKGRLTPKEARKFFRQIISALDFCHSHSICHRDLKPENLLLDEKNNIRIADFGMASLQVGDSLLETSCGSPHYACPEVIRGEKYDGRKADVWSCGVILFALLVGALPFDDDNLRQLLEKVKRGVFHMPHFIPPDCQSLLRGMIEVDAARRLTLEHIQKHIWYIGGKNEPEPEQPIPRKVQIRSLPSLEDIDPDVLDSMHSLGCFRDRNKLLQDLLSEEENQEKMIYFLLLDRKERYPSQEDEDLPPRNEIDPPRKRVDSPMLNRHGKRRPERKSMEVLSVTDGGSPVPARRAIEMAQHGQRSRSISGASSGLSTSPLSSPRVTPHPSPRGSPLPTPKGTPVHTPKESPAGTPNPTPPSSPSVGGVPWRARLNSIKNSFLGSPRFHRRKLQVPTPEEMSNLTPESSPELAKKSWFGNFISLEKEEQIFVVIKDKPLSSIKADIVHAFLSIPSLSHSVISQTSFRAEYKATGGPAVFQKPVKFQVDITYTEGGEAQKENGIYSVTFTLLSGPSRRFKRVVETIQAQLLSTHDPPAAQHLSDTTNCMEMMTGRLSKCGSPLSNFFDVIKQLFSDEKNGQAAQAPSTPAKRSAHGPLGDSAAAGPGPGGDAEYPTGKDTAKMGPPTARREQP
Text: as §1, §2

CHK2 = CHK2 (Homo sapiens, UniProt O96017); settings: TBID 1 μM, 125 kinase panel, read-out: % activity of the enzyme
Chain of CHK2 (O96017 whole entry): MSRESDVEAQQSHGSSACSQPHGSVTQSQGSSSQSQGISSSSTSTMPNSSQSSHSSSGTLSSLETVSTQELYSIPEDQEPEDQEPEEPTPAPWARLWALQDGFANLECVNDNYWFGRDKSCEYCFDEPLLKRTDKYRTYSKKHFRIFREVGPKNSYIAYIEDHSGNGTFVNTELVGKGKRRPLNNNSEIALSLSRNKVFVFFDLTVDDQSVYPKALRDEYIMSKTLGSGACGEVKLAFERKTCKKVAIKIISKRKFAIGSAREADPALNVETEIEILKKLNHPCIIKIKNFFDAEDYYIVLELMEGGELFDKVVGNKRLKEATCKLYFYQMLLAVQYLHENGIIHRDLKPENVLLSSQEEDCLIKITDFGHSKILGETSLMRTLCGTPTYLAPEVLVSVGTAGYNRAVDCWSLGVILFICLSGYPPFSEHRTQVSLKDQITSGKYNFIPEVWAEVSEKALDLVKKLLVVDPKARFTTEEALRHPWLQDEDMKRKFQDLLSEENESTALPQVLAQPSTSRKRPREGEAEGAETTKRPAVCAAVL
Text: as §1, §2

DYRK3 = DYRK3 (Homo sapiens, UniProt O43781); settings: TBID 1 μM, 125 kinase panel, read-out: % activity of the enzyme
Text: as §1, §2

EPH-A4 = EPH-A4 (Homo sapiens, UniProt P54764); settings: TBID 1 μM, 125 kinase panel, read-out: % activity of the enzyme
Text: as §1, §2

EPH-B3 = EPH-B3 (Homo sapiens, UniProt P54753); settings: TBID 1 μM, 125 kinase panel, read-out: % activity of the enzyme
Text: as §1, §2

GCK = GCK (Homo sapiens, UniProt Q12851); settings: TBID 1 μM, 125 kinase panel, read-out: % activity of the enzyme
Text: as §1, §2

GSK3b = GSK3b (Homo sapiens, UniProt P49841); settings: TBID 1 μM, 125 kinase panel, read-out: % activity of the enzyme
Text: as §1, §2

HIPK2 = target: T1, HIPK2 (Homo sapiens, UniProt Q9H2X6)
T1 construct: The source of HIPK2 and of all of the other protein kinases used for specificity assays is as described elsewhere
T1 sequence (Q9H2X6 whole entry): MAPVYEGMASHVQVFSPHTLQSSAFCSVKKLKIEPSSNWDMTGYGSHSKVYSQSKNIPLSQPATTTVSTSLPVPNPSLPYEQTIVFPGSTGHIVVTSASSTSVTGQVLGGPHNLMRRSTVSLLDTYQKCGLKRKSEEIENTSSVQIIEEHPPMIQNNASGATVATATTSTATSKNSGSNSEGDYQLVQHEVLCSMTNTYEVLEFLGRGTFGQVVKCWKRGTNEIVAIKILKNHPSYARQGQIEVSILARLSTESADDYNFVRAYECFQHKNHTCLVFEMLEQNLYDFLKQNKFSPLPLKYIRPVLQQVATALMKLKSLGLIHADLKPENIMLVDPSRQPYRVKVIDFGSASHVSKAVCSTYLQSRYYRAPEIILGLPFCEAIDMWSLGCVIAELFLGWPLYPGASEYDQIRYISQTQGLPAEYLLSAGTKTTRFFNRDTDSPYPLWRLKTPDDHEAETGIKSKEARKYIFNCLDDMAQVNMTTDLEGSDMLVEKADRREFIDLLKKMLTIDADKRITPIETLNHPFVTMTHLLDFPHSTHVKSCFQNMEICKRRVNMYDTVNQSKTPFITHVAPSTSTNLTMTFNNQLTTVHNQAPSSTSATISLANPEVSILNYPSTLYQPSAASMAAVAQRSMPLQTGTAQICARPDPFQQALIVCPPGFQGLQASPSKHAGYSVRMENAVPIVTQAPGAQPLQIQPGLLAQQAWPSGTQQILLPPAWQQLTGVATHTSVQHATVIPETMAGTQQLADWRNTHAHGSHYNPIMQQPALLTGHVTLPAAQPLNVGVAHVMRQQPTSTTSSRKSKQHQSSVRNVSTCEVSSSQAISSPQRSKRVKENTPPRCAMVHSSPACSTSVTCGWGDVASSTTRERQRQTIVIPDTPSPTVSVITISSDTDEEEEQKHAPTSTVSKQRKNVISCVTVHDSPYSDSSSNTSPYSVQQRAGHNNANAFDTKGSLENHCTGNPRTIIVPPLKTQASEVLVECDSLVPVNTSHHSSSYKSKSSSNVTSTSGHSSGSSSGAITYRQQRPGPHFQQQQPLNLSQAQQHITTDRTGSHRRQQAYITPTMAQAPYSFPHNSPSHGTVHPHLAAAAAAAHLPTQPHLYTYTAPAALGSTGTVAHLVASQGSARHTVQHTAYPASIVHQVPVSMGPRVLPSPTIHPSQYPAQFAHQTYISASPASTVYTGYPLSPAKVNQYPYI
Text: as §1, §2

IRAK1 = IRAK1 (Homo sapiens, UniProt P51617); settings: TBID 1 μM, 125 kinase panel, read-out: % activity of the enzyme
Chain of IRAK1 (P51617 whole entry): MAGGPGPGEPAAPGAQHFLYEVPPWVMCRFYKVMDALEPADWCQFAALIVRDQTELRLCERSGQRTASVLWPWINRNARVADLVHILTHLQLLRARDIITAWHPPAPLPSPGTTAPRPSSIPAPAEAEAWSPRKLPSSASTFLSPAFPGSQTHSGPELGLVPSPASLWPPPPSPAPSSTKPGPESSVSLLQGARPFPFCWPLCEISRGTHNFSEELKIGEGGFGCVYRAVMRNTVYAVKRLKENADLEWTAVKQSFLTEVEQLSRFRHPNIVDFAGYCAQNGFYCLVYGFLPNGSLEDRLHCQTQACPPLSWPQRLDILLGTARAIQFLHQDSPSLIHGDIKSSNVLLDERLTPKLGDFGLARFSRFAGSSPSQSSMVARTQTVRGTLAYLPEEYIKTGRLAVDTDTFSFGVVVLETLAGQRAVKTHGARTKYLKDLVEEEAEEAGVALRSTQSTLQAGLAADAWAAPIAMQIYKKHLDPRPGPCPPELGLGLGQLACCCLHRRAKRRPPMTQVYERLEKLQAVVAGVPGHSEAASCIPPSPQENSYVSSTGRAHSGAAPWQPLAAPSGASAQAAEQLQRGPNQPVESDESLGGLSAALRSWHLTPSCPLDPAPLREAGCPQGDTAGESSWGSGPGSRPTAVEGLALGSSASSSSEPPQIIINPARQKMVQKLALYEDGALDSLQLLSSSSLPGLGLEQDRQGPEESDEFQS
Text: as §1, §2

JNK1 = JNK1 (Homo sapiens, UniProt P45983); settings: TBID 1 μM, 125 kinase panel, read-out: % activity of the enzyme
Text: as §1, §2

JNK3 = JNK3 (Homo sapiens, UniProt P53779); settings: TBID 1 μM, 125 kinase panel, read-out: % activity of the enzyme
Text: as §1, §2

MAPKAP-K3 = MAPKAP-K3 (Homo sapiens, UniProt Q16644); settings: TBID 1 μM, 125 kinase panel, read-out: % activity of the enzyme
Text: as §1, §2

MARK2 = MARK2 (Homo sapiens, UniProt Q7KZI7); settings: TBID 1 μM, 125 kinase panel, read-out: % activity of the enzyme
Text: as §1, §2

MARK3 = MARK3 (Homo sapiens, UniProt P27448); settings: TBID 1 μM, 125 kinase panel, read-out: % activity of the enzyme
Text: as §1, §2

MEKK1 = MEKK1 (Homo sapiens, UniProt Q13233); settings: TBID 1 μM, 125 kinase panel, read-out: % activity of the enzyme
Text: as §1, §2

MKK2 = MKK2 (Homo sapiens, UniProt P36507); settings: TBID 1 μM, 125 kinase panel, read-out: % activity of the enzyme
Chain of MKK2 (P36507 whole entry): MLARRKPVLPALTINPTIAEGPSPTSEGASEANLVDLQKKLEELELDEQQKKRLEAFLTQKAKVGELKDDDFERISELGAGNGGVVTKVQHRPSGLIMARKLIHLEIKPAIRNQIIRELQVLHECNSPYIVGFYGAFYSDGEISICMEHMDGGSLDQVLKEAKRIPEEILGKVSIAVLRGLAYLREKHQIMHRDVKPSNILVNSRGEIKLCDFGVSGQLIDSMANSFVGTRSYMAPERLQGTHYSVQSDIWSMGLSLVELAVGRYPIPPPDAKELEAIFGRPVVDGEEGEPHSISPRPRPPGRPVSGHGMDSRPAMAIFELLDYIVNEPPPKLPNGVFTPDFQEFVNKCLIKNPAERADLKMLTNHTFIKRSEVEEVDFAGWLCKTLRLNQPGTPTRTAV
Text: as §1, §2

MKK6 = MKK6 (Homo sapiens, UniProt P52564); settings: TBID 1 μM, 125 kinase panel, read-out: % activity of the enzyme
Text: as §1, §2

MLK1 = MLK1 (Homo sapiens, UniProt P80192); settings: TBID 1 μM, 125 kinase panel, read-out: % activity of the enzyme
Text: as §1, §2

MNK1 = MNK1 (Homo sapiens, UniProt Q9BUB5); settings: TBID 1 μM, 125 kinase panel, read-out: % activity of the enzyme
Text: as §1, §2

MPSK1 = MPSK1 (Homo sapiens, UniProt O75716); settings: TBID 1 μM, 125 kinase panel, read-out: % activity of the enzyme
Text: as §1, §2

MST2 = MST2 (Homo sapiens, UniProt Q13188); settings: TBID 1 μM, 125 kinase panel, read-out: % activity of the enzyme
Text: as §1, §2

NUAK1 = NUAK1 (Homo sapiens, UniProt O60285); settings: TBID 1 μM, 125 kinase panel, read-out: % activity of the enzyme
Text: as §1, §2

PAK2 = PAK2 (Homo sapiens, UniProt Q13177); settings: TBID 1 μM, 125 kinase panel, read-out: % activity of the enzyme
Text: as §1, §2

PHK = PHK (Homo sapiens, UniProt Q16816); settings: TBID 1 μM, 125 kinase panel, read-out: % activity of the enzyme
Text: as §1, §2

PIM1 = target: T2, PIM1 (Homo sapiens, UniProt P11309)
T2 construct: The source of HIPK2 and of all of the other protein kinases used for specificity assays is as described elsewhere
T2 sequence (P11309 whole entry, species assumed): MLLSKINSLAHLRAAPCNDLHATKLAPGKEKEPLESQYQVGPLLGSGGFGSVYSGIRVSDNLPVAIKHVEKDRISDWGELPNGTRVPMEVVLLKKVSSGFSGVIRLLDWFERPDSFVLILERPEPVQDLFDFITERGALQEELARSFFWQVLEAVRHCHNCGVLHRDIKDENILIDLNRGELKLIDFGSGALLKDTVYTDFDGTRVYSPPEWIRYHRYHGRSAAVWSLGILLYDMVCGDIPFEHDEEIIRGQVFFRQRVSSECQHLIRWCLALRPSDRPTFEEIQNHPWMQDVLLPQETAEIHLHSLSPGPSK
Text: as §1, §2

PIM2 = PIM2 (Homo sapiens, UniProt Q9P1W9); settings: TBID 1 μM, 125 kinase panel, read-out: % activity of the enzyme
Text: as §1, §2

PIM3 = PIM3 (Homo sapiens, UniProt Q86V86); settings: TBID 1 μM, 125 kinase panel, read-out: % activity of the enzyme
Text: as §1, §2

PKBb = PKBb (Homo sapiens, UniProt P31751); settings: TBID 1 μM, 125 kinase panel, read-out: % activity of the enzyme
Text: as §1, §2

PKCγ = PKCγ (Homo sapiens, UniProt P05129); settings: TBID 1 μM, 125 kinase panel, read-out: % activity of the enzyme
Text: as §1, §2

PKD1 = PKD1 (Homo sapiens, UniProt Q15139); settings: TBID 1 μM, 125 kinase panel, read-out: % activity of the enzyme
Text: as §1, §2

PRAK = PRAK (Homo sapiens, UniProt Q8IW41); settings: TBID 1 μM, 125 kinase panel, read-out: % activity of the enzyme
Text: as §1, §2

RIPK2 = RIPK2 (Homo sapiens, UniProt O43353); settings: TBID 1 μM, 125 kinase panel, read-out: % activity of the enzyme
Text: as §1, §2

SYK = SYK (Homo sapiens, UniProt P43405); settings: TBID 1 μM, 125 kinase panel, read-out: % activity of the enzyme
Text: as §1, §2

SmMLCK = SmMLCK (Homo sapiens, UniProt Q15746); settings: TBID 1 μM, 125 kinase panel, read-out: % activity of the enzyme
Chain of SmMLCK (Q15746 923-1914): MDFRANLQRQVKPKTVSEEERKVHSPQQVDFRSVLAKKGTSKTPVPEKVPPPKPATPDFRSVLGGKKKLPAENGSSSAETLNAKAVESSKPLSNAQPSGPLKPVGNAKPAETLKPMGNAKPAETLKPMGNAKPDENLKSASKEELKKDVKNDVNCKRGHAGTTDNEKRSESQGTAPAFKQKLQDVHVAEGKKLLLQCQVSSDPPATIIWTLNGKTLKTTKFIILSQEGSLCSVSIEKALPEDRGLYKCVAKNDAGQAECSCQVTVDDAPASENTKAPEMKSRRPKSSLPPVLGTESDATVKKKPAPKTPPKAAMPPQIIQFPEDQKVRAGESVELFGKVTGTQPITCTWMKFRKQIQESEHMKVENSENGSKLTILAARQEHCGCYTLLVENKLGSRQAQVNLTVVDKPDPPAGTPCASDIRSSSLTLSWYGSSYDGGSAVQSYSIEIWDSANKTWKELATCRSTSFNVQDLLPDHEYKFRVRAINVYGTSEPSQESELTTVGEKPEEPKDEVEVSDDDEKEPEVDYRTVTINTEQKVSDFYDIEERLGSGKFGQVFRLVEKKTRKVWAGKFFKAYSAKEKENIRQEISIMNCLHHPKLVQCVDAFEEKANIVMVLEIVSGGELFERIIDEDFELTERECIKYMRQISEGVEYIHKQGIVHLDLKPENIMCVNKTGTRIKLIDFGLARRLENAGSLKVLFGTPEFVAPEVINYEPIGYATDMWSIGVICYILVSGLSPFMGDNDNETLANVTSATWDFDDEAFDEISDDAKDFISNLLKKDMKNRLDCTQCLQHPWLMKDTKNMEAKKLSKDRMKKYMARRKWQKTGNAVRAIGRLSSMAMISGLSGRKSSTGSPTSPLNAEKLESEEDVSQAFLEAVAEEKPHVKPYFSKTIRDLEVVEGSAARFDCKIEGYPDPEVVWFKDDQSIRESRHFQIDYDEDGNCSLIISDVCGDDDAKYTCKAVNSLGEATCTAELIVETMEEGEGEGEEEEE
Text: as §1, §2

TAO1 = TAO1 (Homo sapiens, UniProt Q7L7X3); settings: TBID 1 μM, 125 kinase panel, read-out: % activity of the enzyme
Text: as §1, §2

TLK1 = TLK1 (Homo sapiens, UniProt Q9UKI8); settings: TBID 1 μM, 125 kinase panel, read-out: % activity of the enzyme
Text: as §1, §2

VEG-FR = VEG-FR (Homo sapiens, UniProt P17948); settings: TBID 1 μM, 125 kinase panel, read-out: % activity of the enzyme
Text: as §1, §2

YES1 = YES1 (Homo sapiens, UniProt P07947); settings: TBID 1 μM, 125 kinase panel, read-out: % activity of the enzyme
Text: as §1, §2

ZAP70 = ZAP70 (Homo sapiens, UniProt P43403); settings: TBID 1 μM, 125 kinase panel, read-out: % activity of the enzyme
Text: as §1, §2

p38b MAPK = p38b MAPK (Homo sapiens, UniProt Q15759); settings: TBID 1 μM, 125 kinase panel, read-out: % activity of the enzyme
Text: as §1, §2

p38g MAPK = p38g MAPK (Homo sapiens, UniProt P53778); settings: TBID 1 μM, 125 kinase panel, read-out: % activity of the enzyme
Text: as §1, §2

[1] = 10 µM TBID, panel of 76 protein kinases
[2] = TBID 1 μM, 125 kinase panel, read-out: % activity of the enzyme

O=C1c2c(Br)c(Br)c(Br)c(Br)c2C(=O)N1c1ncc[nH]1 [TBID, 4,5,6,7-Tetrabromo-2-(1H-imidazol-2-yl)isoindoline-1,3-dione]
activity at 1 µM (Aurora A): 101% | activity at 1 µM (BRSK2): 99% | activity at 1 µM (CHK2): 100% | activity at 1 µM (DYRK3): 101% | activity at 1 µM (EPH-A4): 100% | activity at 1 µM (EPH-B3): 103% | activity at 1 µM (GCK): 100% | activity at 1 µM (GSK3b): 94% | residual activity (HIPK2; [1]): entirely suppressed | activity at 1 µM (HIPK2; [2]): 31% | activity at 1 µM (IRAK1): 82% | activity at 1 µM (JNK1): 106% | activity at 1 µM (JNK3): 101% | activity at 1 µM (MAPKAP-K3): 98% | activity at 1 µM (MARK2): 100% | activity at 1 µM (MARK3): 115% | activity at 1 µM (MEKK1): 106% | activity at 1 µM (MKK2): 96% | activity at 1 µM (MKK6): 90% | activity at 1 µM (MLK1): 83% | activity at 1 µM (MNK1): 106% | activity at 1 µM (MPSK1): 93% | activity at 1 µM (MST2): 90% | activity at 1 µM (NUAK1): 81% | activity at 1 µM (PAK2): 97% | activity at 1 µM (PHK): 116% | residual activity (PIM1; [1]): entirely unaffected | activity at 1 µM (PIM1; [2]): 104% | activity at 1 µM (PIM2): 101% | activity at 1 µM (PIM3): 101% | activity at 1 µM (PKBb): 104% | activity at 1 µM (PKCγ): 117% | activity at 1 µM (PKD1): 98% | activity at 1 µM (PRAK): 95% | activity at 1 µM (RIPK2): 102% | activity at 1 µM (SYK): 108% | activity at 1 µM (SmMLCK): 103% | activity at 1 µM (TAO1): 110% | activity at 1 µM (TLK1): 107% | activity at 1 µM (VEG-FR): 115% | activity at 1 µM (YES1): 110% | activity at 1 µM (ZAP70): 91% | activity at 1 µM (p38b MAPK): 111% | activity at 1 µM (p38g MAPK): 101%

From PMC3933419, “Synthesis and Properties of a Selective Inhibitor of Homeodomain–Interacting Protein Kinase 2 (HIPK2)” (PLoS ONE, 2014)
